Tests used:
[1] = molecular target: T1, DDR1 (Homo sapiens, UniProt Q08345); assay: KINOMEscan binding; conditions: read-out: Percent Control
T1 construct: purchased Eurofins DiscoverX KINOMEscan

[2] = molecular target: T2, MLCK (Homo sapiens, UniProt Q32MK0); assay: KINOMEscan binding; conditions: read-out: Percent Control
T2 construct: purchased Eurofins DiscoverX KINOMEscan

[3] = molecular target: T3, BMX (Homo sapiens, UniProt P51813); assay: KINOMEscan binding; conditions: read-out: Percent Control
T3 construct: purchased Eurofins DiscoverX KINOMEscan

[4] = molecular target: T4, TIE2 (Homo sapiens, UniProt Q02763); assay: KINOMEscan binding; conditions: read-out: Percent Control
T4 construct: purchased Eurofins DiscoverX KINOMEscan

[5] = test system: ROCK1; parameters: method as in PMID 18832915; conditions: cited from earlier work
[6] = molecular target: T5, EPHB1 (Homo sapiens, UniProt P54762); assay: KINOMEscan binding; conditions: read-out: Percent Control
T5 construct: purchased Eurofins DiscoverX KINOMEscan

[7] = molecular target: T6, WEE2 (Homo sapiens, UniProt P0C1S8); assay: KINOMEscan binding; conditions: read-out: Percent Control
T6 construct: purchased Eurofins DiscoverX KINOMEscan

[8] = molecular target: T7, DCAMKL1 (Homo sapiens, UniProt O15075); assay: KINOMEscan binding; conditions: read-out: Percent Control
T7 construct: purchased Eurofins DiscoverX KINOMEscan

[9] = molecular target: T8, PDGFRA (Homo sapiens, UniProt P16234); assay: KINOMEscan binding; conditions: read-out: Percent Control
T8 construct: purchased Eurofins DiscoverX KINOMEscan

[10] = molecular target: T9, WNK4 (Homo sapiens, UniProt Q96J92); assay: KINOMEscan binding; conditions: read-out: Percent Control
T9 construct: purchased Eurofins DiscoverX KINOMEscan

[11] = molecular target: T10, PRKCQ (Homo sapiens, UniProt Q04759); assay: KINOMEscan binding; conditions: read-out: Percent Control
T10 construct: purchased Eurofins DiscoverX KINOMEscan

[12] = molecular target: T11, CDKL5 (Homo sapiens, UniProt O76039); assay: KINOMEscan binding; conditions: read-out: Percent Control
T11 construct: purchased Eurofins DiscoverX KINOMEscan

[13] = molecular target: T12, FGFR1 (Homo sapiens, UniProt P11362); assay: KINOMEscan binding; conditions: read-out: Percent Control
T12 construct: purchased Eurofins DiscoverX KINOMEscan

[14] = molecular target: T13, PKN2 (Homo sapiens, UniProt Q16513); assay: KINOMEscan binding; conditions: read-out: Percent Control
T13 construct: purchased Eurofins DiscoverX KINOMEscan
T13 sequence (Q16513 whole entry): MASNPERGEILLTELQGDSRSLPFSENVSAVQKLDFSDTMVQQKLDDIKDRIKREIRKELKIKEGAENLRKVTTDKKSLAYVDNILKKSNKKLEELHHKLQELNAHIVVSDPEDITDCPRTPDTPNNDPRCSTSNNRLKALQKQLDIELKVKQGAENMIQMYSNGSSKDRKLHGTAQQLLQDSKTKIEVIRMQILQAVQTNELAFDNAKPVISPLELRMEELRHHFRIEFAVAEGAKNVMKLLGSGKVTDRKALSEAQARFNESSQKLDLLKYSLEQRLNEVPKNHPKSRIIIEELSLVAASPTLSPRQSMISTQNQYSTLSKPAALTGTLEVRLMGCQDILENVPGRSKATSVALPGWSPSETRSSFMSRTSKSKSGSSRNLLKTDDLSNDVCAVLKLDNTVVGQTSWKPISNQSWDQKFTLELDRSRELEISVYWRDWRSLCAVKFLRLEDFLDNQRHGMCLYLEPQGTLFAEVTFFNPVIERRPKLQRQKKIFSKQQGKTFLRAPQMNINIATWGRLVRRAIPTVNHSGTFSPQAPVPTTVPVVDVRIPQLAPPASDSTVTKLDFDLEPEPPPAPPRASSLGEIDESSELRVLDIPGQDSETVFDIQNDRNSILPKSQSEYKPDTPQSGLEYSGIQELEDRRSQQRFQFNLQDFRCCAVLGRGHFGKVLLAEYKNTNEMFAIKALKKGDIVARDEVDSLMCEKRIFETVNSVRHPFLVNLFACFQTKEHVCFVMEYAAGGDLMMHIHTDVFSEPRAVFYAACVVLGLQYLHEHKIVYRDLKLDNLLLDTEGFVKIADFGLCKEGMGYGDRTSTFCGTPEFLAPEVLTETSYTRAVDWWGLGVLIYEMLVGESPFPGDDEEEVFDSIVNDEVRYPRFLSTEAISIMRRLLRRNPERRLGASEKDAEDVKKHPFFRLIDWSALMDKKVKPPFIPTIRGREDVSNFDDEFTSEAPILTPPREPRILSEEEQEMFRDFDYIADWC

[15] = molecular target: T14, TNK2 (Homo sapiens, UniProt Q07912); assay: KINOMEscan binding; conditions: read-out: Percent Control
T14 construct: purchased Eurofins DiscoverX KINOMEscan

[16] = molecular target: T15, LATS1 (Homo sapiens, UniProt O95835); assay: KINOMEscan binding; conditions: read-out: Percent Control
T15 construct: purchased Eurofins DiscoverX KINOMEscan
T15 sequence (O95835 whole entry): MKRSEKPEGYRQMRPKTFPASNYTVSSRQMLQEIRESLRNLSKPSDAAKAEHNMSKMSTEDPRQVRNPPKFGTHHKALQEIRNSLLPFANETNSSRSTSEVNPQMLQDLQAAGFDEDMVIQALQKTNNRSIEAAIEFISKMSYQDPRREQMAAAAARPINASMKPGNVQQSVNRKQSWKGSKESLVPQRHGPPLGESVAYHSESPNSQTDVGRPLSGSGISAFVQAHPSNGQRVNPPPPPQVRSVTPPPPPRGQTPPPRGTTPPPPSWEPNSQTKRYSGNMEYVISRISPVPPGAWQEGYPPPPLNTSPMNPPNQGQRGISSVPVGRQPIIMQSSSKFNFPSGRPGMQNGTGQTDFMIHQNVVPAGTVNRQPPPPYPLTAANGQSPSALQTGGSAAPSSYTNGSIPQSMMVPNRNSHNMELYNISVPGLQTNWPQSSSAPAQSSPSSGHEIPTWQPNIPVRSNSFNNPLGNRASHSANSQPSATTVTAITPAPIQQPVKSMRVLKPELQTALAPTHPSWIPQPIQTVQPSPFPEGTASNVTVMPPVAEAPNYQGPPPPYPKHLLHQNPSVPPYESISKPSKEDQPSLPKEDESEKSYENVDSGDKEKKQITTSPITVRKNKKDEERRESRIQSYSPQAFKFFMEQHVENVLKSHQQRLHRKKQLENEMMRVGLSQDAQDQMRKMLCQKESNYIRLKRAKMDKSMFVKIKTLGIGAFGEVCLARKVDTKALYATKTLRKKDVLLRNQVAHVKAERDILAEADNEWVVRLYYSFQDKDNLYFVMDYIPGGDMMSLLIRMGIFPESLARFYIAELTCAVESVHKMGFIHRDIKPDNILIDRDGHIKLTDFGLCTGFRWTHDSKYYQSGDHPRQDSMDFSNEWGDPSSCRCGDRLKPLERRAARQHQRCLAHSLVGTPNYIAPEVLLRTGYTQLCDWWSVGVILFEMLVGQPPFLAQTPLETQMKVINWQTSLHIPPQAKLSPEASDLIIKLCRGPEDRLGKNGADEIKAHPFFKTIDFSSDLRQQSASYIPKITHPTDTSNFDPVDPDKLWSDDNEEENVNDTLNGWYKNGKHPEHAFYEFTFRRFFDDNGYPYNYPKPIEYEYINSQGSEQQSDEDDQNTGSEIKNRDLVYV

[17] = molecular target: T16, HIPK3 (Homo sapiens, UniProt Q9H422); assay: KINOMEscan binding; conditions: read-out: Percent Control
T16 construct: purchased Eurofins DiscoverX KINOMEscan

[18] = molecular target: T17, SRPK3 (Homo sapiens, UniProt Q9UPE1); assay: KINOMEscan binding; conditions: read-out: Percent Control
T17 construct: purchased Eurofins DiscoverX KINOMEscan

[19] = molecular target: T18, ZAP70 (Homo sapiens, UniProt P43403); assay: KINOMEscan binding; conditions: read-out: Percent Control
T18 construct: purchased Eurofins DiscoverX KINOMEscan
T18 sequence (P43403 whole entry): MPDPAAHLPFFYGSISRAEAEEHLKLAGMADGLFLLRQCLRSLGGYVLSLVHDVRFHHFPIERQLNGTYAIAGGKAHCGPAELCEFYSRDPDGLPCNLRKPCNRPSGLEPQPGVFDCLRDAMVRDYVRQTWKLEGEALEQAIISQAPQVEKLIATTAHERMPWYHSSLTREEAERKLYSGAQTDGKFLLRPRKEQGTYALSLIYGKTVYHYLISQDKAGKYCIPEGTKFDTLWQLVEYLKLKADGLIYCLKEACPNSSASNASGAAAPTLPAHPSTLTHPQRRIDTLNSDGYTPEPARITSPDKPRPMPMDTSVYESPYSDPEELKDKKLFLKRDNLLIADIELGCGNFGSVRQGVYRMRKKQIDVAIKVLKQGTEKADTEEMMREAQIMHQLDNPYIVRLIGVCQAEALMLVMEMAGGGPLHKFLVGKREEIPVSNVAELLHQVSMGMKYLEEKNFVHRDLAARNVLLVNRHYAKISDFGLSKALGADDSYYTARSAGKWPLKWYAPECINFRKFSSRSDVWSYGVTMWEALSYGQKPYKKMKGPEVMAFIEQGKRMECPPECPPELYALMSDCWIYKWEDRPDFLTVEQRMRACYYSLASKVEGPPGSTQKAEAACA

[20] = molecular target: T19, FRK (Homo sapiens, UniProt P42685); assay: KINOMEscan binding; conditions: read-out: Percent Control
T19 construct: purchased Eurofins DiscoverX KINOMEscan

[21] = molecular target: T20, MUSK (Homo sapiens, UniProt O15146); assay: KINOMEscan binding; conditions: read-out: Percent Control
T20 construct: purchased Eurofins DiscoverX KINOMEscan

[22] = molecular target: T21, HIPK2 (Homo sapiens, UniProt Q9H2X6); assay: KINOMEscan binding; conditions: read-out: Percent Control
T21 construct: purchased Eurofins DiscoverX KINOMEscan

[23] = molecular target: T22, EPHB2 (Homo sapiens, UniProt P29323); assay: KINOMEscan binding; conditions: read-out: Percent Control
T22 construct: purchased Eurofins DiscoverX KINOMEscan

[24] = molecular target: T23, NEK4 (Homo sapiens, UniProt P51957); assay: KINOMEscan binding; conditions: read-out: Percent Control
T23 construct: purchased Eurofins DiscoverX KINOMEscan

[25] = molecular target: T24, EPHA1 (Homo sapiens, UniProt P21709); assay: KINOMEscan binding; conditions: read-out: Percent Control
T24 construct: purchased Eurofins DiscoverX KINOMEscan
T24 sequence (P21709 26-976): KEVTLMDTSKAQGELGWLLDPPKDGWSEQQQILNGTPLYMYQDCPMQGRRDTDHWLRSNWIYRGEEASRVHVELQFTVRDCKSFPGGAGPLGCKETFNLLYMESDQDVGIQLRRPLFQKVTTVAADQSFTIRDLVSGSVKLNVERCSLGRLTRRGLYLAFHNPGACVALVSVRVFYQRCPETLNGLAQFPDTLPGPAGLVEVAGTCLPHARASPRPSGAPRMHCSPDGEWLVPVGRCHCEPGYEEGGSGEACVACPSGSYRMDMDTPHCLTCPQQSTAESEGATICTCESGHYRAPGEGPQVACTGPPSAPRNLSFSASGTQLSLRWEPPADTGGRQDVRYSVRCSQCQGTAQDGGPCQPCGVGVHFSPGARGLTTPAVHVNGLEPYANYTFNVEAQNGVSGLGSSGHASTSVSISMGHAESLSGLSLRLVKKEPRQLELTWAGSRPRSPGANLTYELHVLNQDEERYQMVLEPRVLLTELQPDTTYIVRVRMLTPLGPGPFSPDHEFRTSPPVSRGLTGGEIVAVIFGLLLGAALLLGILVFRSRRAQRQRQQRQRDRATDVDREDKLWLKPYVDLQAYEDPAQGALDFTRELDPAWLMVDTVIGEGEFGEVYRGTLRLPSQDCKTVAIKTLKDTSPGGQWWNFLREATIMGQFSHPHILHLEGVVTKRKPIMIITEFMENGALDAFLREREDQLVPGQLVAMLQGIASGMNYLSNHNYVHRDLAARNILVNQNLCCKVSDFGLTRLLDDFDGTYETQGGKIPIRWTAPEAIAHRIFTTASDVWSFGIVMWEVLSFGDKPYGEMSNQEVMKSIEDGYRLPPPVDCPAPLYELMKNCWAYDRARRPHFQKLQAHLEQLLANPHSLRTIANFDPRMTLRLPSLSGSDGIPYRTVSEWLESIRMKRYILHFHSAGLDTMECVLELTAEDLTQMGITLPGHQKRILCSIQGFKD

[26] = molecular target: T25, FLT1 (Homo sapiens, UniProt P17948); assay: KINOMEscan binding; conditions: read-out: Percent Control
T25 construct: purchased Eurofins DiscoverX KINOMEscan

[27] = molecular target: T26, FGFR4 (Homo sapiens, UniProt P22455); assay: KINOMEscan binding; conditions: read-out: Percent Control
T26 construct: purchased Eurofins DiscoverX KINOMEscan

[28] = molecular target: T27, SGK3 (Homo sapiens, UniProt Q96BR1); assay: KINOMEscan binding; conditions: read-out: Percent Control
T27 construct: purchased Eurofins DiscoverX KINOMEscan

[29] = molecular target: T28, PIK3CA(I800L) (Homo sapiens, UniProt P42336, I800L); assay: KINOMEscan binding; conditions: read-out: Percent Control
T28 construct: purchased Eurofins DiscoverX KINOMEscan

[30] = molecular target: T29, JNK2 (Homo sapiens, UniProt P45984); assay: KINOMEscan binding; conditions: read-out: Percent Control
T29 construct: purchased Eurofins DiscoverX KINOMEscan
T29 sequence (P45984 whole entry): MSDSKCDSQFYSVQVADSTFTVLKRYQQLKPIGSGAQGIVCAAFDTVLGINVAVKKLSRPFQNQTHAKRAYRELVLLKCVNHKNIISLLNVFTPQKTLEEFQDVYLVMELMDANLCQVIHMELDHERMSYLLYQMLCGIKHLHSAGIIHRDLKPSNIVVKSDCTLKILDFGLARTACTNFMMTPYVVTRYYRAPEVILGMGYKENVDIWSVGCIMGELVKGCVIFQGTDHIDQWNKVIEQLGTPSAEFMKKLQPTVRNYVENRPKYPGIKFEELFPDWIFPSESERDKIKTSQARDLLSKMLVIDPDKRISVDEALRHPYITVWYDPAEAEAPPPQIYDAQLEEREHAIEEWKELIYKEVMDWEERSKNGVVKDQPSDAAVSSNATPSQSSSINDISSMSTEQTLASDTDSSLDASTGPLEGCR

[31] = molecular target: T30, CSF1R-autoinhibited (Homo sapiens, UniProt P07333); assay: KINOMEscan binding; conditions: read-out: Percent Control
T30 construct: purchased Eurofins DiscoverX KINOMEscan

[32] = molecular target: T31, BIKE (Homo sapiens, UniProt Q9NSY1); assay: KINOMEscan binding; conditions: read-out: Percent Control
T31 construct: purchased Eurofins DiscoverX KINOMEscan

[33] = molecular target: T32, ABL1(T315I)-nonphosphorylated (Homo sapiens, UniProt P00519, T315I); assay: KINOMEscan binding; conditions: read-out: Percent Control
T32 construct: purchased Eurofins DiscoverX KINOMEscan

[34] = molecular target: T33, PCTK3 (Homo sapiens, UniProt Q07002); assay: KINOMEscan binding; conditions: read-out: Percent Control
T33 construct: purchased Eurofins DiscoverX KINOMEscan

[35] = molecular target: T34, ROS1 (Homo sapiens, UniProt P08922); assay: KINOMEscan binding; conditions: read-out: Percent Control
T34 construct: purchased Eurofins DiscoverX KINOMEscan

[36] = molecular target: T35, PRKCH (Homo sapiens, UniProt P24723); assay: KINOMEscan binding; conditions: read-out: Percent Control
T35 construct: purchased Eurofins DiscoverX KINOMEscan

[37] = molecular target: T36, LIMK2 (Homo sapiens, UniProt P53671); assay: KINOMEscan binding; conditions: read-out: Percent Control
T36 construct: purchased Eurofins DiscoverX KINOMEscan

[38] = molecular target: T37, NIK (Homo sapiens, UniProt Q99558); assay: KINOMEscan binding; conditions: read-out: Percent Control
T37 construct: purchased Eurofins DiscoverX KINOMEscan

[39] = molecular target: T38, FLT3 (Homo sapiens, UniProt P36888); assay: KINOMEscan binding; conditions: read-out: Percent Control
T38 construct: purchased Eurofins DiscoverX KINOMEscan

[40] = molecular target: T39, WNK1 (Homo sapiens, UniProt Q9H4A3); assay: KINOMEscan binding; conditions: read-out: Percent Control
T39 construct: purchased Eurofins DiscoverX KINOMEscan

[41] = molecular target: T40, CDK8 (Homo sapiens, UniProt P49336); assay: KINOMEscan binding; conditions: read-out: Percent Control
T40 construct: purchased Eurofins DiscoverX KINOMEscan

T1 sequence (Q08345 19-913): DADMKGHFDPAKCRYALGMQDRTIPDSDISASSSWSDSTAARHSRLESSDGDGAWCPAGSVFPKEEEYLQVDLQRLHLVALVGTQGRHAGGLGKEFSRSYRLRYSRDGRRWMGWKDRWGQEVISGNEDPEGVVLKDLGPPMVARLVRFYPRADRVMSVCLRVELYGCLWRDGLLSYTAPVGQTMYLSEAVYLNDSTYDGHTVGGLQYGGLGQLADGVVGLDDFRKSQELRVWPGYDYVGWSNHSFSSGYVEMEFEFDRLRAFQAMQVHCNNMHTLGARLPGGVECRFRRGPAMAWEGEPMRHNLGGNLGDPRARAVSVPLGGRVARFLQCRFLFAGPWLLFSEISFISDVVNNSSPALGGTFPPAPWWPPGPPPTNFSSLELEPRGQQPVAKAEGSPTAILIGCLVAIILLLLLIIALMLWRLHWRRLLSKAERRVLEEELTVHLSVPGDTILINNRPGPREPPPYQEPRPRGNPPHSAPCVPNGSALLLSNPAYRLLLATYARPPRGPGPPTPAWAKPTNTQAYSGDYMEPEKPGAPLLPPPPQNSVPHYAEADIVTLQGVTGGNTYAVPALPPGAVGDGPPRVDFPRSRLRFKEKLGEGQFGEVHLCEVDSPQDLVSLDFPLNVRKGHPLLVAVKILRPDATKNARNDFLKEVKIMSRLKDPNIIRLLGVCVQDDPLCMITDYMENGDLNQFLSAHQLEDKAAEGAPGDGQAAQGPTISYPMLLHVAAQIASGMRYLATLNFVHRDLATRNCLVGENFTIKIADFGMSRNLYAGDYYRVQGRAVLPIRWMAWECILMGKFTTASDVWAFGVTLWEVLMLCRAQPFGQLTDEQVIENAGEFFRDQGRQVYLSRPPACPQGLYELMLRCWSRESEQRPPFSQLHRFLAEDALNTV

In the case of CC(C)NC(=O)COc1cccc(-c2nc(Nc3ccc4[nH]ncc4c3)c3ccccc3n2)c1 [KD025, 2-(3-(4-((1H-indazol-5-yl)amino)quinazolin-2-yl)phenoxy)-N-isopropylacetamide], the remaining binding at 10 µM [1] is reported as 6.4%, the remaining binding at 10 µM [2] is reported as 100% and the remaining binding at 10 µM [3] is reported as 69%. For the same molecule, the remaining binding at 10 µM [4] was 55%, the IC50 [5] was 24 µM and the remaining binding at 10 µM [6] was 98%. The remaining binding at 10 µM [7] was 82%, the remaining binding at 10 µM [8] was 79% and the remaining binding at 10 µM [9] was 80%. For the same molecule, the remaining binding at 10 µM [10] was 100%, the remaining binding at 10 µM [11] was 41% and the remaining binding at 10 µM [12] was 100%. The remaining binding at 10 µM [13] was 95%, the remaining binding at 10 µM [14] was 84% and the remaining binding at 10 µM [15] was 82%. It also gave a remaining binding at 10 µM [16] of 48%, a remaining binding at 10 µM [17] of 100% and a remaining binding at 10 µM [18] of 5.7%. It also gave a remaining binding at 10 µM [19] of 63%, a remaining binding at 10 µM [20] of 78% and a remaining binding at 10 µM [21] of 59%. It also gave a remaining binding at 10 µM [22] of 100%, a remaining binding at 10 µM [23] of 96% and a remaining binding at 10 µM [24] of 87%. It also gave a remaining binding at 10 µM [25] of 88%, a remaining binding at 10 µM [26] of 95% and a remaining binding at 10 µM [27] of 91%. The remaining binding at 10 µM [28] was 79%, the remaining binding at 10 µM [29] was 100% and the remaining binding at 10 µM [30] was 66%. The remaining binding at 10 µM [31] was 91%, the remaining binding at 10 µM [32] was 3.9% and the remaining binding at 10 µM [33] was 93%. The remaining binding at 10 µM [34] was 81%, the remaining binding at 10 µM [35] was 79% and the remaining binding at 10 µM [36] was 96%. The remaining binding at 10 µM [37] was 73%, the remaining binding at 10 µM [38] was 84% and the remaining binding at 10 µM [39] was 60%. The remaining binding at 10 µM [40] was 94% and the remaining binding at 10 µM [41] was 98%.

Source: PMC8401933 (Molecules, 2021)
